Laboratory results from publication PMC4775085 (ACS chemical neuroscience, 2015).
Converted amounts (≈) assume the structure as drawn. “And” between values parts separate entries of the source, which are not always exact repeats. Equal values may be shown once. Read-outs that look alike come from different tables or passages of the source. Each block holds one molecule with its values, some of them ahead of it.

What was measured:
Aqueous solubility = conditions: PBS; for solubility: pH 7.4, aqueous buffer
mutant HSPB1 DRG neurons = test: Mitochondrial axonal transport in mutant HSPB1 DRG neurons; type: cell-based, mouse; conditions: DRG neurons from transgenic mutant HSPB1 mice, 100 nM overnight
HDAC6 = target: T1, HDAC6 (Homo sapiens, UniProt Q9UBN7); test: HDAC6 enzymatic inhibition assay; type: biochemical; conditions: for Selectivity HDAC1/HDAC6: ratio of HDAC1 and HDAC6 IC50 of Table 1 (fold); for IC50: 10-point enzymatic assay starting from 30 μM, 3-fold serial dilution
T1 sequence (Q9UBN7 1-1215): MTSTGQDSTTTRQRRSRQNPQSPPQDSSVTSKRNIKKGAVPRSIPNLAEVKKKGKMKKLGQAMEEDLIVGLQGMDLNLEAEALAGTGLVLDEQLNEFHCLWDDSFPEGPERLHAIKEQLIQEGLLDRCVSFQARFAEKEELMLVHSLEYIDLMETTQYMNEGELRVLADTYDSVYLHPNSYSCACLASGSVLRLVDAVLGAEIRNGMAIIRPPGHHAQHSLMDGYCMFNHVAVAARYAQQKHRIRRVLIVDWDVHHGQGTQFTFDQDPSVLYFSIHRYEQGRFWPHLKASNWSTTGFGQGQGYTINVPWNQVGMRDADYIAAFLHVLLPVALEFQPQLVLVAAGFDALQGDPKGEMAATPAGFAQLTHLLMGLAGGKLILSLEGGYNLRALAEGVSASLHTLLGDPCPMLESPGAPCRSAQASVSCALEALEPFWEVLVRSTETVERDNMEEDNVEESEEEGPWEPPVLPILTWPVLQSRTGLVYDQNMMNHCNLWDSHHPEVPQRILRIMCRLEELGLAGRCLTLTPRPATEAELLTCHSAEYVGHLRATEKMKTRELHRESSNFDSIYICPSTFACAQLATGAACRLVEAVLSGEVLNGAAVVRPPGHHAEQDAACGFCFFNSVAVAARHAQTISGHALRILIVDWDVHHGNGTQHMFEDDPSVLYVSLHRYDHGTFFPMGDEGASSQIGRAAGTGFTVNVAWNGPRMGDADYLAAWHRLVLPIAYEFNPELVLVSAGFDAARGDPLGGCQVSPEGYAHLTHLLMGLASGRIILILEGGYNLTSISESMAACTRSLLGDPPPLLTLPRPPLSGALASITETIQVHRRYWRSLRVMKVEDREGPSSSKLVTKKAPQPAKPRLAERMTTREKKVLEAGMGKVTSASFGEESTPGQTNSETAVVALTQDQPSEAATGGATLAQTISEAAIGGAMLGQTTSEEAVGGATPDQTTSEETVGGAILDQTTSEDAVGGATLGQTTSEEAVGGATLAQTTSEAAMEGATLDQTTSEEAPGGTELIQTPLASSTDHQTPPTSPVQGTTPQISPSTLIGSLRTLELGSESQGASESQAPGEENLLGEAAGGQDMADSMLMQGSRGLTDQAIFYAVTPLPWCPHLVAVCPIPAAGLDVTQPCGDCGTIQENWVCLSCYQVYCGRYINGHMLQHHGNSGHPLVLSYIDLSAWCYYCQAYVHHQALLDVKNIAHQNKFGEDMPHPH

CYP 3A4-T = CYP 3A4-T (Homo sapiens, UniProt P08684); test: CYP inhibition 3A4-T; type: in vitro ADME
[1] = Liver microsomes stability, mouse; type: in vitro ADME
HDAC5 = HDAC5 (Homo sapiens, UniProt Q9UQL6); test: HDAC5 enzymatic inhibition assay
HDAC4 = HDAC4 (Homo sapiens, UniProt P56524); test: HDAC4 enzymatic inhibition assay
Plasma stability, human = type: in vitro ADME; conditions: 120 min
HDAC8 = target: T2, HDAC8 (Homo sapiens, UniProt Q9BY41); test: HDAC8 enzymatic inhibition assay
T2 sequence (Q9BY41 1-377): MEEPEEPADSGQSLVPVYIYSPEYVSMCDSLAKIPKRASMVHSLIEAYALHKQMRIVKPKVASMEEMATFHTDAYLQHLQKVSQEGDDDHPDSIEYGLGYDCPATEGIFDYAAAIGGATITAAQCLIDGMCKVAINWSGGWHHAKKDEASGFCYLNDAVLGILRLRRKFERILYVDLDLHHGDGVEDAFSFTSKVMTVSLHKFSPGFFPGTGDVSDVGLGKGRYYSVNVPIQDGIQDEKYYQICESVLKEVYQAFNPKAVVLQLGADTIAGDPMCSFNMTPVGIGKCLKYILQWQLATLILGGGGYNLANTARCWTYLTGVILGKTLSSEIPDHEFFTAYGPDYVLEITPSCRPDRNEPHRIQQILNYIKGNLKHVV

[2] = Liver microsomes stability, human; type: in vitro ADME
Caco-2 permeability = type: in vitro ADME; conditions: human, Caco-2, pH 7.4
CYP 2C19 = CYP 2C19 (Homo sapiens, UniProt P33261); test: CYP inhibition 2C19
[3] = Hepatocyte stability, mouse; type: in vitro ADME; conditions: hepatocytes
CYP 1A2 = target: T3, CYP 1A2 (Homo sapiens, UniProt P05177); test: CYP inhibition 1A2
T3 sequence (P05177 1-516): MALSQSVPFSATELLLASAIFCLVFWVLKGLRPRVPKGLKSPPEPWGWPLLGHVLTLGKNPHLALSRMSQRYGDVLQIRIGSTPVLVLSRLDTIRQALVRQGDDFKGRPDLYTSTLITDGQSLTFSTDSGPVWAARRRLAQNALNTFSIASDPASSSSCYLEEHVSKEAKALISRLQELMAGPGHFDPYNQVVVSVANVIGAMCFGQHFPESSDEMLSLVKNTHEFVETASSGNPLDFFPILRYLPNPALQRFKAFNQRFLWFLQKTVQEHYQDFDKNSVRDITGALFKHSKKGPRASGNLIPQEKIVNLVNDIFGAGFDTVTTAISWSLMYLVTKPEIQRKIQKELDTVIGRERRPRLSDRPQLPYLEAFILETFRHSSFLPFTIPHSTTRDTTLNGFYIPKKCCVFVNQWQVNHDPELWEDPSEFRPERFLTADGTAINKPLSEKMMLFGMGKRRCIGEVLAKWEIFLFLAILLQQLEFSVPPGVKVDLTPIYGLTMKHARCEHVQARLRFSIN

[4] = Intravenous and oral plasma pharmacokinetics in male CD1 mice; type: in vivo; conditions: CD1, mouse
Plasma stability, mouse = type: in vitro ADME; conditions: 120 min
[5] = Hepatocyte stability, human; type: in vitro ADME; conditions: hepatocytes
CYP 3A4-M = CYP 3A4-M (Homo sapiens, UniProt P08684); test: CYP inhibition 3A4-M; type: in vitro ADME
CYP 2D6 = CYP 2D6 (Homo sapiens, UniProt P10635); test: CYP inhibition 2D6; type: in vitro ADME
CYP 2C9 = CYP 2C9 (Homo sapiens, UniProt P11712); test: CYP inhibition 2C9
[6] = IC50 (nM) HDAC6, mean of two experiments ± standard deviation

Sequence of CYP 2C19 (P33261 whole entry): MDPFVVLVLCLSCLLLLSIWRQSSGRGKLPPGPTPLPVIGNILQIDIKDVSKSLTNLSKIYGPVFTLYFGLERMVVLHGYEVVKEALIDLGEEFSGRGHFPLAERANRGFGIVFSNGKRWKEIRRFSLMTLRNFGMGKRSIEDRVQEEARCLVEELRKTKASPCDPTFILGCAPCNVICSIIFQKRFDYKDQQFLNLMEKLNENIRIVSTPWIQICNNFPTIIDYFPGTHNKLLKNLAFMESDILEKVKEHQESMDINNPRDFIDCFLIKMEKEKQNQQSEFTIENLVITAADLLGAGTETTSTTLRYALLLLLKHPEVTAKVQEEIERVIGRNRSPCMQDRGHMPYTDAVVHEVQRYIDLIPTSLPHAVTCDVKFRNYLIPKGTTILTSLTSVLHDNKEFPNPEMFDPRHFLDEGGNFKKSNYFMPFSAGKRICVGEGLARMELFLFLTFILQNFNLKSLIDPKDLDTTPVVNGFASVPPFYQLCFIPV
Sequence of CYP 2C9 (P11712 whole entry): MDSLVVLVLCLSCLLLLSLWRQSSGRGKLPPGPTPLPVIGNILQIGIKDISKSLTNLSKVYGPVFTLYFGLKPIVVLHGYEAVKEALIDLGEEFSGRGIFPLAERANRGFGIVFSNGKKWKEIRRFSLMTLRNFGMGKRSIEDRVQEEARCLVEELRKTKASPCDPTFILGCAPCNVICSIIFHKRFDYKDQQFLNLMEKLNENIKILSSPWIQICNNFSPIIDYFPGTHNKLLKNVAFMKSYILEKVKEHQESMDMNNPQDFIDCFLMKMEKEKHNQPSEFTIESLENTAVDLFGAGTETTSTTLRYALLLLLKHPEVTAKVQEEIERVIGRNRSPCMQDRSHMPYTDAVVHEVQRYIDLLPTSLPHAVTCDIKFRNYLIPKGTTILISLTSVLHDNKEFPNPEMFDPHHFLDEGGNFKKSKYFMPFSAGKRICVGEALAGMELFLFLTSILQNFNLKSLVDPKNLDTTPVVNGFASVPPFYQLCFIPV
Sequence of CYP 2D6 (P10635 whole entry): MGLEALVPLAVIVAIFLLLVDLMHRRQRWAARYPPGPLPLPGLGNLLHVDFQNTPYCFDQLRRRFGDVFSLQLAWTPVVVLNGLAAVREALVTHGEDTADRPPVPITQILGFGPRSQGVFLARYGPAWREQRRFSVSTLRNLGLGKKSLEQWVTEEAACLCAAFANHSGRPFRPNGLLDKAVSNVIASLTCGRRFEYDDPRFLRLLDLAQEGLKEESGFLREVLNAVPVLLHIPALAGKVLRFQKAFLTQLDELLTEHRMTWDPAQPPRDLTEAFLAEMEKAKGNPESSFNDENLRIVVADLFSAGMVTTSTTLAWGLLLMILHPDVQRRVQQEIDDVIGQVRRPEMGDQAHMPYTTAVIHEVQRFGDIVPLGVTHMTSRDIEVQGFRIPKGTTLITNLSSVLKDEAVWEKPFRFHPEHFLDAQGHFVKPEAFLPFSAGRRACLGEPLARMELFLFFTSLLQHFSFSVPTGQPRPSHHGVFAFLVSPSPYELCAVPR
Sequence of CYP 3A4-M (P08684 whole entry): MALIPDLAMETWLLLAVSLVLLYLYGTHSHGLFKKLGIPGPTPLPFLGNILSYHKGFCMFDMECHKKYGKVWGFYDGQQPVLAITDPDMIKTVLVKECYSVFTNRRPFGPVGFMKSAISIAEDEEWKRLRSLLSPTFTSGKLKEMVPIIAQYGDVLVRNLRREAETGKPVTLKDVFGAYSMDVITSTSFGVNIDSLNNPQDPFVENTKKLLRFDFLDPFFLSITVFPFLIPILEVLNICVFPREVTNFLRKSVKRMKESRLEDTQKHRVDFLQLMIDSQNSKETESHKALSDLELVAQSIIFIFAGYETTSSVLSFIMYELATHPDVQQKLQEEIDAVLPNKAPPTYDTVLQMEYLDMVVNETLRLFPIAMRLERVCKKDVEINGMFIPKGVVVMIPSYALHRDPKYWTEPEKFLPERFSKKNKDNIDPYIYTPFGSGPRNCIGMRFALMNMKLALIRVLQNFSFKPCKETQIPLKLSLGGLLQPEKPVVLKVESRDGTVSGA
Sequence of CYP 3A4-T (P08684 whole entry): as above
Sequence of HDAC4 (P56524 whole entry): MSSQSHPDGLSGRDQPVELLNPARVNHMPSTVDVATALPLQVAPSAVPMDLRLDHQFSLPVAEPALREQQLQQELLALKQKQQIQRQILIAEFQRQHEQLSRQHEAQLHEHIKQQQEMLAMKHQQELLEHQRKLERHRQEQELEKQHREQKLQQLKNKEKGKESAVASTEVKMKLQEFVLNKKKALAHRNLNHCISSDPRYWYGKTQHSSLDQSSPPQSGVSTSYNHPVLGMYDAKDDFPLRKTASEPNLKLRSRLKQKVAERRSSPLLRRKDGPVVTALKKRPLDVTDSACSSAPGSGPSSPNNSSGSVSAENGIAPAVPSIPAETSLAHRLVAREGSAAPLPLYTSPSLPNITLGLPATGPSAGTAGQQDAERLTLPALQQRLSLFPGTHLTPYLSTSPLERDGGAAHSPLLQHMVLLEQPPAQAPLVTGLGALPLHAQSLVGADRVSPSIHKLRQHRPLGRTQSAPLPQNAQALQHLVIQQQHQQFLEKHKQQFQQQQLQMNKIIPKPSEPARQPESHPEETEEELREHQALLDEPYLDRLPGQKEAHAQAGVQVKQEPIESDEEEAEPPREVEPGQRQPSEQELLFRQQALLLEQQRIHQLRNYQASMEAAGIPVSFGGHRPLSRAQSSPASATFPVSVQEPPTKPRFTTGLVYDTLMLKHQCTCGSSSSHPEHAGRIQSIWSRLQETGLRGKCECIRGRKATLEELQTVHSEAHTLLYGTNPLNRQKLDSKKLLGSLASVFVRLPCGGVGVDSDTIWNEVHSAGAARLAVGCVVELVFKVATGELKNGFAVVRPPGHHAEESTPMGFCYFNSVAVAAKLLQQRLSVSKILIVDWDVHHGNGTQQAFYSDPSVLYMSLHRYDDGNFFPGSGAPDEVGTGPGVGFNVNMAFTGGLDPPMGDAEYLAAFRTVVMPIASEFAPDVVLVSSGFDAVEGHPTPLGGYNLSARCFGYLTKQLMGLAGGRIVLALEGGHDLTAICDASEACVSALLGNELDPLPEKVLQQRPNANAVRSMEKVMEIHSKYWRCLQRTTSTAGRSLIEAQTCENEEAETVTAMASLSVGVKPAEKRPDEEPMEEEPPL
Sequence of HDAC5 (Q9UQL6 whole entry): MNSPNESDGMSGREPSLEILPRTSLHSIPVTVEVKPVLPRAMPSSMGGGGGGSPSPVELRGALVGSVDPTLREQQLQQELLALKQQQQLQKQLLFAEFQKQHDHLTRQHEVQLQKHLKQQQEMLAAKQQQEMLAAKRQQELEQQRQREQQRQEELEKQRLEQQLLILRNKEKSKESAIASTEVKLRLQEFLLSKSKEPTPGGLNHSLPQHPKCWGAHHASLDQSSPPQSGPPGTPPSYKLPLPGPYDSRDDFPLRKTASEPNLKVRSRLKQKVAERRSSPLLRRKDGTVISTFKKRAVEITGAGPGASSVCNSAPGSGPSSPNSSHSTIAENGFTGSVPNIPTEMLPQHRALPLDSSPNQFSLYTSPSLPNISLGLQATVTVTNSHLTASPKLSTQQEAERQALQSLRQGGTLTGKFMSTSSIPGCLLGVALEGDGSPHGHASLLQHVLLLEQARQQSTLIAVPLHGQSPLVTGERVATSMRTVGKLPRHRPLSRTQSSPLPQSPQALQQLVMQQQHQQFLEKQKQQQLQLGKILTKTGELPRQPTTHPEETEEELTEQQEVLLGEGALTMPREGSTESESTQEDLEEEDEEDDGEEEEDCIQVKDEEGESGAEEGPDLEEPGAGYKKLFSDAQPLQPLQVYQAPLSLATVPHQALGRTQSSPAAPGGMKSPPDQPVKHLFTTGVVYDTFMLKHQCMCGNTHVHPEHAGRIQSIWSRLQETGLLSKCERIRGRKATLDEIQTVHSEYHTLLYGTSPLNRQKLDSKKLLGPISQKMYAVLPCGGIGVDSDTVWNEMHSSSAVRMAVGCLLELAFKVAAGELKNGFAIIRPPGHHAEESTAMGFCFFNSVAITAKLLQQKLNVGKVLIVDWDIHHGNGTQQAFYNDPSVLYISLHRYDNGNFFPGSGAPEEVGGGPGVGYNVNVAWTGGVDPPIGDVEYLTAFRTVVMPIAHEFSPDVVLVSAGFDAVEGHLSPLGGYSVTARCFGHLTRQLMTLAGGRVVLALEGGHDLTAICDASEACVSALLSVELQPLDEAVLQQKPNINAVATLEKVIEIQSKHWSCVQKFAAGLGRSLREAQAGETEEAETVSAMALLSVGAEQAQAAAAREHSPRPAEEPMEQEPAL

Compound: Cc1nc2ccccc2n1Cc1ccc(C(=O)NO)cc1 [12a]
aqueous solubility (Aqueous solubility; pH 7.4): 70 µM (≈ 19.7 µg/mL)
mitochondrial axonal transport (number of moving mitochondria per 100 μm of neurite) (mutant HSPB1 DRG neurons): able to restore the movement of mitochondria
fold increase in HDAC6 inhibitory potency (HDAC6; compared to 8 (hydrogen to methyl)): 3 fold
Selectivity HDAC1/HDAC6 (HDAC6): 955
IC50 (HDAC6; read-out: IC50 (nM) HDAC6, mean of two experiments ± standard deviation): 9 nM and 9.2 nM

Compound: CC(C)c1nc2ccccc2n1Cc1ccc(C(=O)NO)cc1 [12b, N-Hydroxy-4-[(2-isopropyl-1-benzimidazolyl)methyl]benzamide]
Selectivity HDAC1/HDAC6 (HDAC6): 589

Compound: CC(=O)NCCCc1nc2ccccc2n1Cc1ccc(C(=O)NO)cc1 [12d, 4-[[2-(3-Acetamidopropyl)-1-benzimidazolyl]methyl]-N-hydroxybenzamide]
Selectivity HDAC1/HDAC6 (HDAC6): 312

Compound: CN(C)CCc1nc2ccccc2n1Cc1ccc(C(=O)NO)cc1 [12e, 4-[[2-[2-(Dimethylamino)ethyl]-1-benzimidazolyl]methyl]-N-hydroxybenzamide]
Selectivity HDAC1/HDAC6 (HDAC6): 416

Compound: CN1CCc2c(c3ccccc3n2Cc2ccc(C(=O)NO)cc2)C1 [tubastatin A, reference compound]
half-life [1]: 5.05 h
plasma stability remaining percentage (Plasma stability, human): 96.4%
half-life [2]: 25.3 h
Papp A→B (Caco-2 permeability): 2 ×10⁻⁶ cm/s
Papp B→A (Caco-2 permeability): 19.7 ×10⁻⁶ cm/s
IC50 (CYP 2C19): > 50000 nM
half-life [3]: 0.5 h
IC50 (CYP 1A2): > 50000 nM
clearance ([4]; iv, 3 mg/kg): 222 mL/min/kg
Tmax ([4]; po, 30 mg/kg): 0.25 h
plasma stability remaining percentage (Plasma stability, mouse): 83.0%
solubility (Aqueous solubility): 301 µM (≈ 101 µg/mL)
mitochondrial axonal transport (number of moving mitochondria per 100 μm of neurite) (mutant HSPB1 DRG neurons): able to restore the movement of mitochondria
half-life [5]: 1.47 h
IC50 (CYP 2D6): 16000 nM
IC50 (CYP 2C9): > 50000 nM

Now from value to molecule, other results behind:

IC50 (HDAC6; [6]): 3 nM
Compound: O=C(NO)c1ccc(CN2CCNc3ccccc32)cc1 [17a, 4-[[1,2,3,4-Tetrahydroquinoxalin-1-yl]methyl]-N-hydroxybenzamide]

IC50 (HDAC6; [6]): 39.3 ± 0.3 nM
Compound: O=C(NO)c1ccc(CN2CCN(CC3CC3)c3ccccc32)cc1 [17b, 4-[[4-(Cyclopropylmethyl)-1,2,3,4-tetrahydroquinoxalin-1-yl]-methyl]-N-hydroxybenzamide]

IC50 (HDAC6; [6]): 6 nM
Compound: O=C(NO)c1ccc(CN2CCSc3ccccc32)cc1 [17c, 4-[[2,3-Dihydro-4H-benzo[b][1,4]thiazin-4-yl]methyl]-N-hydroxybenzamide]

IC50 (HDAC6; [6]): 34 nM
Compound: CC(C)(C)OC(=O)N1CC(=O)N(Cc2ccc(C(=O)NO)cc2)c2ccccc21 [17e, tert-Butyl 4-[4-(Hydroxycarbamoyl)benzyl]-3-oxo-3,4-dihydroquinoxaline-1(2H)-carboxylate]

IC50 (HDAC6; [6]): 1 nM
Compound: O=C(NO)c1ccc(Cn2c(=O)cnc3ccccc32)cc1 [17f, N-Hydroxy-4-[(2-oxoquinoxalin-1(2H)-yl)methyl]benzamide]

fold reduction of HDAC6 activity compared to 12a (HDAC6): > 400 fold
Compound: Cc1nc2ccccc2n1Cc1nc(C(=O)NO)co1 [23a, N-Hydroxy-2-[(2-methyl-1-benzimidazolyl)methyl]oxazole-4-carboxamide]

IC50 (HDAC6; [6]): 8310 ± 905 nM
fold reduction of HDAC6 activity compared to 12a (HDAC6): > 900 fold
Compound: Cc1nc2ccccc2n1Cc1nc(C(=O)NO)cs1 [23b, N-Hydroxy-2-[(2-methyl-1-benzimidazolyl)methyl]thiazole-4-carboxamide]

IC50 (HDAC6; [6]): 77 nM
Compound: Cc1nc2ccccc2n1Cc1ccc(C(=O)NO)cn1 [23c, N-Hydroxy-6-[(2-methyl-1-benzimidazolyl)methyl]nicotinamide]

IC50 (CYP 3A4-T): 36000 nM
half-life [1]: 4.75 h
IC50 (HDAC5): 182 nM
IC50 (HDAC4): 470 nM
plasma stability remaining percentage (Plasma stability, human): 93.4%
IC50 (HDAC8): 176 nM
half-life [2]: 32.4 h
Papp A→B (Caco-2 permeability): 3.89 ×10⁻⁶ cm/s
Papp B→A (Caco-2 permeability): 13.2 ×10⁻⁶ cm/s
IC50 (CYP 2C19): > 50000 nM
half-life [3]: 0.667 h
IC50 (CYP 1A2): > 50000 nM
AUC(0-inf) ([4]; iv, 3 mg/kg): 1480 ng·h/mL
Vd ([4]; iv, 3 mg/kg): 0.382 L/kg
clearance ([4]; iv, 3 mg/kg): 34 mL/min/kg
half-life ([4]; iv, 3 mg/kg): 0.851 h
AUC(0-inf) ([4]; po, 30 mg/kg): 3100 ± 84 ng·h/mL
Cmax ([4]; po, 30 mg/kg): 4370 ± 470 ng/mL
Tmax ([4]; po, 30 mg/kg): 0.25 h
plasma stability remaining percentage (Plasma stability, mouse): 87.9%
solubility (Aqueous solubility): 302 µM (≈ 90.4 µg/mL)
half-life [5]: 24.8 h
IC50 (CYP 3A4-M): > 50000 nM
IC50 (CYP 2D6): > 50000 nM
IC50 (CYP 2C9): > 50000 nM
Compound: Cc1nc2ccccc2n1Cc1ccc(C(=O)NO)cc1F [23d, 3-Fluoro-N-hydroxy-4-[(2-methyl-1-benzimidazolyl)methyl]-benzamide]
mitochondrial axonal transport (number of moving mitochondria per 100 μm of neurite) (mutant HSPB1 DRG neurons): able to restore the movement of mitochondria

IC50 (HDAC6; [6]): 16 nM
Selectivity HDAC1/HDAC6 (HDAC6): 1500
Compound: O=C(NO)c1ccc(Cn2c(C(F)(F)F)nc3ccccc32)c(F)c1 [23e, 3-Fluoro-N-hydroxy-4-[(2-(trifluoromethyl)-1-benzimidazolyl)-methyl]benzamide]

IC50 (HDAC6; [6]): 6 nM
Compound: Cc1nc2cc(F)ccc2n1Cc1ccc(C(=O)NO)cc1 [30b, 4-[(5-Fluoro-2-methyl-1-benzimidazolyl)methyl]-N-hydroxybenzamide]
